*1 amine or outer side, *2 acyl side, *3 side chain or, on linkers, in order; H or OH if unused. Where a SMILES comes first, the peptide text is derived from it. CO = O=C([*:1])[*:2]
T1: papain (Carica papaya, UniProt P00784)
T1 construct: purchased Sigma Chemical Company (St. Louis, Mo.)
T1 sequence (P00784 134-345): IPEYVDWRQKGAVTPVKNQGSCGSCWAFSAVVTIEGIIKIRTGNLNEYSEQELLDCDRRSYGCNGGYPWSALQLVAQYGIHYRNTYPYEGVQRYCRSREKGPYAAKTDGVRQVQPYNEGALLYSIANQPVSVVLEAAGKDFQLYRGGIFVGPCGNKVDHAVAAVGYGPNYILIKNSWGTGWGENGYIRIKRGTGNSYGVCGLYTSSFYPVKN

B1: Papain: soluble protease from Sigma used to digest IgG to F(ab) (protein, UniProt P00784 134-345, looked up)
Papain: T1 sequence (P00784 134-345)

How the values were obtained:
[1] = molecular target: T1, papain; test: Inhibition of papain esterolytic activity by antipain and leupeptin (BAEE substrate, pH stat); assay type: biochemical; details: for effect of the presence of IgG substrate on inhibitory activity: 10 mg of human IgG present; for time to inhibit 100% of papain activity: inhibitor 0.4 mg/ml; for Time: time to the stated inhibition
Protocol: (§1) Papain activity was assayed using N-benzoyl-L-arginine ethyl ester in a pH stat and pepsin activity using hemoglobin substrate, according to the procedures given in the Worthington Enzyme Manual.
The ability of antipain and leupeptin to modify papain activity was checked with enzyme, both in the absence and in the presence of immunoglobulin substrate. A 0.5 mg aliquot of active papain was made up in the presence and in the absence of 10 mg of human IgG in 0.025M sodium phosphate buffer containing 10 mM EDTA and 50 mM cysteine (pH 6.2). To each sample, different amounts of either antipain or leupeptin were added and then incubated at 23° C. for 5 minutes. An aliquot of this enzyme was diluted in the same buffer and assayed for papain activity using BAEE as the substrate in the pH stat.

[2] = system: avidin-agarose; test: Binding of biotinylated papain to avidin-agarose column; details: 0.5 mg through a 1 ml column, pH 8.5 buffer
Excerpt: The column was eluted with a pH 8.5 buffer and the absorbance of the eluting fractions were monitored at 280 nm.

[3] = system: human IgG; test: Digestion of IgG to F(ab) by papain; assay type: biochemical
Protocol: Typically, 10 mg of IgG in the papain digestion buffer (0,025M sodium phosphate, 10 mM EDTA, 50 mM cysteine, pH 6.2) was added to either 0.5 ml of activated immobilized papain (0.5 mg equivalent of free papain) or 0.5 mg of activated soluble papain in the digestion buffer. The proteolytic cleavage was carried out for various time intervals at 37° C. At the end of each incubation period, the immobilized papain sample was centrifuged to remove the protease and the supernatant transferred to another tube containing 0.5 ml of pH 8.5 buffer. The gel was washed once with 1 ml of pH 8.5 buffer and supernatants combined. In the case of soluble papain, 0.4 mg of antipain or leupeptin in water was added to inactivate the papain and the mixture diluted with 0.5 ml of pH 8.5 buffer.
The separation of inactivated papain from the rest of mixture was carried by one of two methods. According to one procedure, an excess of anti-papain IgG (3 mg) was added to complex with the inactivated papain and the Fab fragments were separated from the rest of the mixture by passing through a 1 ml protein A cartridge equilibrated with pH 8.5 buffer. This procedure removed both the protease and its antibody in the form of antigen-antibody complexes. The column was eluted with 5 ml of pH 8.5 buffer to collect the F(ab) fragments and the absorbance of the various fractions was read at 280 nm. In an alternative procedure, the reaction mixture was first passed through an immobilized column of antipapain IgG to remove the inactivated papain and then passed through a 1 ml protein A cartridge equilibrated with pH 8.5 buffer. The Fc and the undigested immunoglobulins were eluted from the protein A cartridge with an elution buffer (pH 3.5).
After 30 minutes incubation at 37° C., 0.4 mg of antipain was added to inactivate the enzyme and then 0.5 ml of pH 8.5 buffer added to the mixture. […] The effluent was passed through a protein A column to adsorb the Fc and the undigested IgG. The F(ab) fragments came out unabsorbed from the protein A column. […]

[4] = Papain activity assay using N-benzoyl-L-arginine ethyl ester in a pH stat; assay type: biochemical; details: BAEE substrate
Protocol: as §1

[5] = read-out: inhibition of papain activity
[6] = PAPAIN (0.5 mg) + IgG (10 mg), inhibitor 0.4 mg
[7] = PAPAIN (0.5 mg), inhibitor 0.2 mg
[8] = PAPAIN (0.5 mg), inhibitor 0.4 mg

% Binding to Avidin-Agarose [2] [%] | amount of F(ab) obtained relative to the immobilized form of the enzyme ([3]; first 30 minutes) | Molecule | effect of the presence of IgG substrate on inhibitory activity [1] | time to inhibit 100% of papain activity [1] [min] | inhibition at 400 µg/mL [1, 5] [%] | Time ([1]; PAPAIN (0.5 mg) + IgG (10 mg), inhibitor 0.2 mg) [min] | Time [1, 6] [min] | Time [1, 7] [min] | Time [1, 8] [min] | time to achieve 100% inhibition of papain activity ([1]; inhibitor 0.05 mg/ml) [min] | inhibition at 50 µg/mL [1, 5] [%] | Time ([1]; PAPAIN (0.5 mg) + IgG (10 mg), inhibitor 0.05 mg) [min] | Time ([1]; PAPAIN (0.5 mg) + IgG (10 mg), inhibitor 0.1 mg) [min] | Time ([1]; PAPAIN (0.5 mg), inhibitor 0.05 mg) [min] | Time ([1]; PAPAIN (0.5 mg), inhibitor 0.1 mg) [min] | % Fab Generated ([3]; 10 mg IgG, 0.5 mg enzyme, 37° C., 30 minutes) [%] | digestion of the total IgG added to F(ab) ([3]; human IgG, within the first 30 minutes, 37° C.) [%] | Activity (Unit/mg) [4] [Unit/mg]
 |  | CC(=O)N[C@@H](CC(C)C)C(=O)N[C@@H](CC(C)C)C(=O)N[C@H](C=O)CCCNC(=N)N [LEUPEPTIN, Leupeptin] | did not affect | ≤ 1 | 100 | < 1 | < 1 | < 1 | < 1 |  |  |  |  |  |  |  |  | 
 |  | CC(C)[C@H](NC(=O)[C@H](CCCNC(=N)N)NC(=O)N[C@@H](Cc1ccccc1)C(=O)O)C(=O)N[C@H](C=O)CCCNC(=N)N [ANTIPAIN, Antipain] ({Phe-CO}-Arg-Val-Arg-aldehyde) | did not affect | ≤ 1 | 100 |  | 1 | 1 | 1 | ≤ 15 | 100 | 15 | 4 | 15 | 4 |  |  | 
0 | double | B1 |  |  |  |  |  |  |  |  |  |  |  |  |  | 75 | 75 | 7.8
